How the values were obtained:
[1] = test system: patients with GA; test: Phase 2 randomized sham-controlled clinical trial in GA: change in GA lesion size; type: in vivo, human; settings: 15 mg intravitreal monthly or every other month for 12 months vs sham
Protocol: A randomized, single-masked, sham-controlled clinical trial of pegcetacoplan in patients with GA was conducted. 246 patients aged ≥50 years were enrolled in the trial.
Patients were randomized in a 2:2:1:1 manner to receive 15 mg pegcetacoplan (APL-2) monthly, 15 mg pegcetacoplan every other month, sham injection monthly or sham injection every other month. Patients in the pegcetacoplan arms received a dose of 15 mg of pegcetacoplan, injected into the vitreous humor in a 0.1 cc volume, monthly or every other month for 12 months followed by six months of monitoring after the end of treatment. In the sham-injection cohorts, patients received a simulated injection. The safety, tolerability, PK, and evidence of activity of multiple intravitreal injections of pegcetacoplan in patients with GA in at least one eye were assessed. The primary efficacy endpoint was change in GA lesion size from baseline to month 12. […] The adverse event profile is depicted in FIG. 3. (See also Liao et al., Ophthalmology 127:186-195 (2020).)

[2] = Pharmacokinetic profile of a single intravitreal dose in monkeys; type: in vivo; settings: single intravitreal dose 10 mg/eye in both eyes
[3] = test system: patients with wet AMD; test: Phase 1b open label single ascending dose clinical trial, intravitreal injection; type: in vivo, human
Protocol: In some embodiments a dose for intravitreal injection of a compstatin analog (e.g., comprising two compstatin analog moieties and a PEG having a molecular weight of about 40 kD) is 5 mg-20 mg. In some embodiments the dose is 10 mg. In some embodiments the dose is 10 mg, 11 mg, 12 mg, 13 mg, 14 mg, 15 mg, 16 mg, 17 mg, 18 mg, 19 mg, or 20 mg. In certain particular embodiments the dose is 15 mg. In some embodiments, any of the afore-mentioned doses is administered by intravitreal injection in a volume of between 90 and 110 microliters, e.g., in a volume of 100 microliters. In some embodiments, any of the afore-mentioned doses is administered by intravitreal injection using a 27, 28, 29, or 30 gauge needle. […] In certain embodiments a combination of dose and needle gauge that allows administration by IVT injection in 10 seconds or less is selected. In certain embodiments a combination of dose and needle that allows administration of the dose by IVT injection in 5-6 seconds, or less, is used.
A Phase 1 open label, single ascending dose clinical trial of pegcetacoplan in patients with wet AMD and receiving anti-VEGF therapy (specifically, Lucentis®, Eylea® or Avastin®), was initiated to assess safety, tolerability and PK of pegcetacoplan. In this trial, patients receive a single dose of pegcetacoplan by intravitreal injection followed by 113 days of monitoring. […]

[4] = test system: patients with GA; test: Post hoc OCT analysis of Phase 2 trial: progression outside GA lesions (large drusen to iRORA/cRORA, iRORA to cRORA); type: in vivo, human; settings: for reduction in the risk of progression to cRORA compared with sham: 12 months
Protocol: Post hoc analysis was also conducted to assess disease progression outside of GA lesions. Participants in the study (n=246) were categorized into PM (n=86), EOM (n=79), and sham (n=81) categories. Eyes with missed injections and those that developed exudative AMD (whereupon pegcetacoplan treatment was discontinued) were excluded. […] Masked readers evaluated OCT scans outside a 500-micron perimeter from the GA border adhering to classification described in Sadda et al., Ophthalmology 125:537-548 (2018)). […] SD-OCT images obtained at baseline, Month 6, and Month 12 (using the Zeiss Cirrus or 156 Heidelberg Spectralis) using 7-line raster scans (30×5, 240 μm spacing, 7 sections, ART set to 25, 1536 A-scans) and volume scans (20×20; 49 sections, 120 μm spacing, ART set to 16, 512 A-scans) were graded following the CAM criteria independently by two masked readers at the Doheny Image Reading and Research Lab (DIRRL). A senior reader (and member of the CAM group) reviewed all questionable cases flagged by the readers and also adjudicated any discrepancies between graders in order to yield a single consensus result for each case.
Main outcome measures included assessments at baseline, Month 6 and Month 12 of: a) progression from large drusen (≥40 microns height) to incomplete/complete RPE and outer retina atrophy (iRORA and/or cRORA) and b) progression from iRORA to cRORA. Specifically, the endpoints for each treatment group were: proportion of study eyes with at least one iRORA at baseline that progressed to cRORA at 6 and 12 months, and proportion of individual baseline iRORA lesions that progressed to cRORA at 6 and 12 months.
Baseline characteristics were summarized using descriptive statistics. Continuous variables, such as GA lesion size, were summarized using the number of observations, mean, standard deviation, median, minimum, and maximum. Categorical variables, such as the presence of iRORA lesion(s) at baseline, were summarized using counts and percentages. The progression of iRORA to cRORA was summarized at Months 6 and 12 at both the study eye and lesion level. For the study-eye-level summaries, the subset of eyes with at least one iRORA lesion at baseline was included. If at least one iRORA lesion was present at baseline progressed to cRORA during follow-up, the eye was counted as having progressed. The proportion of study eyes with progression was compared between each pegcetacoplan group and the sham control group using a Pearson chi-square test. P values <0.05 were considered statistically significant. Risk ratios and their corresponding 95% confidence intervals were calculated as the proportion that progressed from iRORA to cRORA in the pegcetacoplan group divided by the proportion in the sham group. For the lesion-level summaries of progression, each iRORA lesion present at baseline was assessed separately for progression to a cRORA lesion; the proportion of lesions that progressed was compared between each pegcetacoplan group and the sham control group using descriptive statistics (counts and percentages).

[5] = Repeated intravitreal injection toxicology/toxicokinetics over nine months in cynomolgus monkeys; type: in vivo
Protocol: Preclinical studies in monkeys were performed to assess the safety and pharmacology of pegcetacoplan when injected intravitreally. Intravitreally administered pegcetacoplan in cynomolgus monkeys is distributed into the blood stream then further distributed and/or slowly eliminated from the body.

Poly(oxy-1,2-ethanediyl), α-hydro-ω-hydroxy-, 15,15′-diester with N-acetyl-L-isoleucyl-L-cysteinyl-L-valyl-1-methyl-L-tryptophyl-L-glutaminyl-L-α-aspartyl-L-tryptophylglycyl-L-alanyl-L-histidyl-L-arginyl-L-cysteinyl-L-threonyl-2-[2-(2-aminoethoxy)ethoxy]acetyl-N^6-carboxy-L-lysinamide cyclic (2->12)-(disulfide) [pegcetacoplan]
rate of GA lesion growth (change in GA lesion size from baseline to month 12) [1]: reduced rate of lesion growth
vitreal half-life [2]: approximately 3.2 days
apparent half-life of serum concentrations ([2]; serum): 10.4 days
post-dose day until which serum concentrations increased ([2]; serum): 7 days
serious adverse events ([3]; initial nine patients, single intravitreal dose 5, 10 or 20 mg): no serious adverse events were reported
tolerability ([3]; single intravitreal dose 5 mg, 10 mg, 20 mg in 100 microliters): well tolerated
reduction in the risk of progression to cRORA compared with sham ([4]; every other month, lesion level): 40%
reduction in the risk of progression to cRORA compared with sham ([4]; every other month, study-eye level): 30%
reduction in the risk of progression to cRORA compared with sham ([4]; monthly, lesion level): 41%
reduction in the risk of progression to cRORA compared with sham ([4]; monthly, study-eye level): 39%
Relative risk of progression from iRORA to cRORA vs sham (95% CI) ([4]; Month 6, PEOM, lesion level data): 0.51 (0.30-0.87)
Relative risk of progression from iRORA to cRORA vs sham (95% CI) ([4]; Month 6, PEOM, study-eye level): 0.76 (0.45-1.29)
Relative risk of progression from iRORA to cRORA vs sham (95% CI) ([4]; Month 6, PM, lesion level data): 0.53 (0.24-1.14)
Relative risk of progression from iRORA to cRORA vs sham (95% CI) ([4]; Month 6, PM, study-eye level): 0.52 (0.23-1.18)
progression from large drusen to iRORA/cRORA ([4]; Month 12, 15 mg monthly (PM)): 22.6%
Relative risk of progression from iRORA to cRORA vs sham (95% CI) ([4]; Month 12, PEOM, lesion level data): 0.60 (0.43-0.82)
Relative risk of progression from iRORA to cRORA vs sham (95% CI) ([4]; Month 12, PEOM, study-eye level): 0.70 (0.50-0.98)
Relative risk of progression from iRORA to cRORA vs sham (95% CI) ([4]; Month 12, PM, lesion level data): 0.59 (0.36-0.97)
Relative risk of progression from iRORA to cRORA vs sham (95% CI) ([4]; Month 12, PM, study-eye level): 0.61 (0.37-1.00)
progression events from large drusen to iRORA/cRORA vs sham (in words) ([4]; Month 12, monthly): relatively fewer progression events
rate of progression from nascent GA to GA compared to sham controls (in words) ([4]; intravitreal injections monthly or every other month): lower rate of progression from nascent GA to GA
rate of progression of iRORA lesions to cRORA ([4]; month 6, every other month (PEOM), lesion level): 20.0%
progression from iRORA to cRORA, proportion of study eyes ([4]; month 6, every other month (PEOM), study-eye level): 40.6%
rate of progression of iRORA lesions to cRORA ([4]; month 6, monthly (PM), lesion level): 20.7%
progression from iRORA to cRORA, proportion of study eyes ([4]; month 6, monthly (PM), study-eye level): 27.8%
rate of progression of iRORA lesions to cRORA ([4]; month 12, every other month (EOM), lesion level): 38.4%
progression from iRORA to cRORA, proportion of study eyes ([4]; month 12, every other month (PEOM), study-eye level): 57.6%
rate of progression of iRORA lesions to cRORA ([4]; month 12, monthly (PM), lesion level): 37.9%
progression from iRORA to cRORA, proportion of study eyes ([4]; month 12, monthly (PM), study-eye level): 50.0%
rate of progression from iRORA to cRORA compared to sham group (in words) ([4]; monthly or every other month): lower rate of progression from iRORA to cRORA
intraocular or serum accumulation over multiple injections ([5]; doses up to 24.8 mg/eye in 5% dextrose, 50 or 100 μL/eye): little intraocular or serum accumulation
full toxicological review (ophthalmological assessment, SD-OCT, electroretinography, tonometry, histopathology) ([5]; repeated intravitreal injections over nine months, doses up to 24.8 mg/eye): no evidence of pegcetacoplan-mediated changes

From patent US20230381269A1, “METHODS OF TREATING EYE DISORDERS” (Apellis Pharmaceuticals, Inc., priority 2020, published 2023)
